Results on 15 molecules are retold here after patent publication US9605006B2, “5-aryl-1-imino-1-oxo-[1,2,4]thiadiazines” (Hoffmann-La Roche Inc., priority 2013, dated 2017).

BACE1, sequence (P56817 46-501): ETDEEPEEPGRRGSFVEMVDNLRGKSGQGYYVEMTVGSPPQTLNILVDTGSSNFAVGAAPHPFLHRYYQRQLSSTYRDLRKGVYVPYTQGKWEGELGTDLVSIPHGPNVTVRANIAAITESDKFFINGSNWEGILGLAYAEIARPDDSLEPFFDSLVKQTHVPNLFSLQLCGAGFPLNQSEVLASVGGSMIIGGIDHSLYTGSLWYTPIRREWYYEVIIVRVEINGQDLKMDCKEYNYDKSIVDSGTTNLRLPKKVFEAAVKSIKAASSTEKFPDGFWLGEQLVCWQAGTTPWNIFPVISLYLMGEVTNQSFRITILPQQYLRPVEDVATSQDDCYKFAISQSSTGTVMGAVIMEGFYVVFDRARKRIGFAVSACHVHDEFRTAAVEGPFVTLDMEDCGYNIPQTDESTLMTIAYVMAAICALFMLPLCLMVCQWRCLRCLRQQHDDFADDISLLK

This experiment deals with BACE1 (Homo sapiens (Human), UniProt P56817). Kind of experiment: Cellular Aβ-lowering assay (Abeta 40 AlphaLISA Assay). In kind it is cell-based. Conditions: HEK293 APP cells, Aβ40 in culture supernatant after 18-20 hrs incubation. The procedure:
Cellular Aβ-Lowering Assay:
The Abeta 40 AlphaLISA Assay can be used. The HEK293 APP cells were seeded in 96 well Microtiter plates in cell culture medium (Iscove's, plus 10% (v/v) fetal bovine serum, penicillin/streptomycin) to about 80% confluency and the compounds were added at a 3× concentration in ⅓ volume of culture medium (final DMSO concentration was kept at 1% v/v). After 18-20 hrs incubation at 37° C. and 5% CO2 in a humidified incubator, the culture supernatants were harvested for the determination of Aβ40 concentrations using Perkin-Elmer Human Amyloid beta 1-40 (high specificity) Kit (Cat# AL275C).
In a Perkin-Elmer White Optiplate-384 (Cat#6007290), 2 ul culture supernatants were combined with 2μl of a 10× AlphaLISA Anti-hAβAcceptor beads+Biotinylated Antibody Anti-Aβ1-40 Mix (50 μg/mL/5 nM). After 1 hour room temperature incubation, 16 μl of a 1.25× preparation of Streptavidin (SA) Donor beads (25 μg/mL) were added and incubated for 30 minutes in the Dark. Light Emission at 615 nm was then recorded using EnVision-Alpha Reader. Levels of Aβ40 in the culture supernatants were calculated as percentage of maximum signal (cells treated with 1% DMSO without inhibitor). The IC50 values were calculated using the Excel XLfit software.
Broadly, the IC50 is the concentration that gives 50% inhibition. `CC1(c2cc(NC(=O)c3ccc(C#N)cn3)ccc2F)CS2(=O)=NCCCCN2C(N)=N1` (stereo in doubt) [Example 1, 5-cyano-pyridine-2-carboxylic acid [3-((3RS,4aRS)-1-amino-3-methyl-4a-oxo-3,4,6,7,8,9-hexahydro-4aλ^6-thia-2,5,9a-triaza-benzocyclohepten-3-yl)-4-fluoro-phenyl]-amide]: the IC50 amounted to 45 nM. In turn, `CC1(c2cc(NC(=O)c3ccc(C#N)cn3)ccc2F)CS2(=O)=NCCCCN2C(N)=N1` (stereo in doubt) [Example 2, 5-cyano-pyridine-2-carboxylic acid [3-((3RS,4aSR)-1-amino-3-methyl-4a-oxo-3,4,6,7,8,9-hexahydro-4aλ^6-thia-2,5,9a-triaza-benzocyclohepten-3-yl)-4-fluoro-phenyl]-amide] had an IC50 of 2 nM. The figure for `C[C@@]1(c2cc(NC(=O)c3ncc(C#N)cc3Cl)ccc2F)CS2(=O)=NCCCCN2C(N)=N1` (stereo in doubt) [Example 20, 3-Chloro-5-cyano-pyridine-2-carboxylic acid [3-((3R,4aS)-1-amino-3-methyl-4a-oxo-3,4,6,7,8,9-hexahydro-4aλ^6-thia-2,5,9a-triaza-benzocyclohepten-3-yl)-4-fluoro-phenyl]-amide] is 1 nM. The figure for `C[C@@]1(c2cc(NC(=O)c3ccc(OCC(F)(F)F)cn3)ccc2F)CS2(=O)=NCCCCN2C(N)=N1` (stereo in doubt) [Example 21, 5-(2,2,2-Trifluoro-ethoxy)-pyridine-2-carboxylic acid [3-((3R,4aS)-1-amino-3-methyl-4a-oxo-3,4,6,7,8,9-hexahydro-4aλ^6-thia-2,5,9a-triaza-benzocyclohepten-3-yl)-4-fluoro-phenyl]-amide] is 10 nM. The figure for `CC#CCOc1cnc(C(=O)Nc2ccc(F)c([C@]3(C)CS4(=O)=NCCCCN4C(N)=N3)c2)cn1` (stereo in doubt) [Example 22, 5-But-2-ynyloxy-pyrazine-2-carboxylic acid [3-((3R,4aS)-1-amino-3-methyl-4a-oxo-3,4,6,7,8,9-hexahydro-4aλ^6-thia-2,5,9a-triaza-benzocyclohepten-3-yl)-4-fluoro-phenyl]-amide] is 0.2 nM. `Cc1cc(F)cnc1C(=O)Nc1ccc(F)c([C@]2(C)CS3(=O)=NCCCCN3C(N)=N2)c1` (stereo in doubt) [Example 23, 5-Fluoro-3-methyl-pyridine-2-carboxylic acid [3-((3R,4aS)-1-amino-3-methyl-4a-oxo-3,4,6,7,8,9-hexahydro-4aλ^6-thia-2,5,9a-triaza-benzocyclohepten-3-yl)-4-fluoro-phenyl]-amide] displayed an IC50 of 1.5 nM. Next, `CC1(c2ccccc2F)CS2(=O)=NCCCCN2C(N)=N1` (stereo in doubt) [Example A20a2, (3RS,4aSR)-3-(2-Fluoro-phenyl)-3-methyl-4a-oxo-3,4,6,7,8,9-hexahydro-4aλ^6-thia-2,5,9a-triaza-benzocyclohepten-1-ylamine]: 1040 nM. In turn, `C[C@@]1(c2cc(-c3cc(-c4ncc(Cl)cn4)no3)ccc2F)C[S@@]2(=O)=NCCCCN2C(N)=N1` [Example 13, (9R,11R)-7-Amino-9-(5-(3-(5-chloropyrimidin-2-yl)isoxazol-5-yl)-2-fluorophenyl)-9-methyl-2,3,4,5,9,10-hexahydro-[1,2,4]thiadiazino[1,2-a][1,2,7]thiadiazepine 11-oxide 2,2,2-trifluoroacetate] gave an IC50 of 12 nM. The figure for `C[C@@]1(c2cc(-c3cc(-c4ncc(Cl)cn4)no3)ccc2F)C[S@]2(=O)=NCCCCN2C(N)=N1` [Example 14, (9R,11S)-7-Amino-9-(5-(3-(5-chloropyrimidin-2-yl)isoxazol-5-yl)-2-fluorophenyl)-9-methyl-2,3,4,5,9,10-hexahydro-[1,2,4]thiadiazino[1,2-a][1,2,7]thiadiazepine 11-oxide 2,2,2-trifluoroacetate] is 95 nM. With `C[C@@]1(c2cc(-c3cn(-c4ccc(C#N)cn4)nn3)ccc2F)C[S@]2(=O)=NCCCCN2C(N)=N1` [Example 15, 6-(4-(3-((9R,11S)-7-Amino-9-methyl-11-oxido-2,3,4,5,9,10-hexahydro-[1,2,4]thiadiazino[1,2-a][1,2,7]thiadiazepin-9-yl)-4-fluorophenyl)-1H-1,2,3-triazol-1-yl)nicotinonitrile 2,2,2-trifluoroacetate], inhibition was half-maximal at 95 nM (IC50). Next, `C[C@@]1(c2cc(C#Cc3ccc(C#N)cc3)ccc2F)C[S@@]2(=O)=NCCCCN2C(N)=N1` [Example 16, 4-((3-((9R,11R)-7-amino-9-methyl-11-oxido-2,3,4,5,9,10-hexahydro-[1,2,4]thiadiazino[1,2-a][1,2,7]thiadiazepin-9-yl)-4-fluorophenyl)ethynyl)benzonitrile 2,2,2-trifluoroacetate]: 21 nM. Next, `COc1cnc(-c2cc(-c3ccc(F)c([C@]4(C)C[S@@]5(=O)=NCCCCN5C(N)=N4)c3)on2)cn1` [Example 17, (9R,11R)-7-Amino-9-(2-fluoro-5-(3-(5-methoxypyrazin-2-yl)isoxazol-5-yl)phenyl)-9-methyl-2,3,4,5,9,10-hexahydro-[1,2,4]thiadiazino[1,2-a][1,2,7]thiadiazepine 11-oxide 2,2,2-trifluoroacetate]: 9 nM. The figure for `COc1cnc(-c2cc(-c3ccc(F)c([C@]4(C)C[S@]5(=O)=NCCCCN5C(N)=N4)c3)on2)cn1` [Example 18, (9R,11S)-7-amino-9-(2-fluoro-5-(3-(5-methoxypyrazin-2-yl)isoxazol-5-yl)phenyl)-9-methyl-2,3,4,5,9,10-hexahydro-[1,2,4]thiadiazino[1,2-a][1,2,7]thiadiazepine 11-oxide 2,2,2-trifluoroacetate] is 694 nM; for `C[C@@]1(c2cc(-c3cc(-c4cnc(OCC(F)F)cn4)no3)ccc2F)C[S@@]2(=O)=NCCCCN2C(N)=N1` [Example 19, (9R,11R)-7-Amino-9-(5-(3-(5-(2,2-difluoroethoxy)pyrazin-2-yl)isoxazol-5-yl)-2-fluorophenyl)-9-methyl-2,3,4,5,9,10-hexahydro-[1,2,4]thiadiazino[1,2-a][1,2,7]thiadiazepine 11-oxide 2,2,2-trifluoroacetate] it is 14 nM. In turn, `Cc1cc(C#N)cnc1C(=O)Nc1ccc(F)c([C@]2(C)CS3(=O)=NCC(F)(F)CN3C(N)=N2)c1` (stereo partly drawn) [Example 25, N-(3-((8R)-6-amino-3,3-difluoro-8-methyl-10-oxido-3,4,8,9-tetrahydro-2H-[1,2,6]thiadiazino[1,2-a][1,2,4]thiadiazin-8-yl)-4-fluorophenyl)-5-cyano-3-methylpicolinamide] registered an IC50 of 2 nM.
